Measured values from patent US7820714B2, “Siglec inhibitors” (priority 2001, dated 2010).

Tests used:
Siglec-4a (MAG) = target: T1, Siglec-4a (MAG) (UniProt P20917); test: Hapten inhibition assay, Siglec-4a (MAG); settings: for Siglec-4a (MAG) rIP: quotient IC50 reference compound / IC50 compound; for IC50: read-out: Siglec-4a (MAG) IC50, unit inferred; for binds stronger to siglec-4a than the reference compound: relative to 2-alpha-methyl-5-N-acetyl-neuraminic acid
T1 sequence (P20917 1-627): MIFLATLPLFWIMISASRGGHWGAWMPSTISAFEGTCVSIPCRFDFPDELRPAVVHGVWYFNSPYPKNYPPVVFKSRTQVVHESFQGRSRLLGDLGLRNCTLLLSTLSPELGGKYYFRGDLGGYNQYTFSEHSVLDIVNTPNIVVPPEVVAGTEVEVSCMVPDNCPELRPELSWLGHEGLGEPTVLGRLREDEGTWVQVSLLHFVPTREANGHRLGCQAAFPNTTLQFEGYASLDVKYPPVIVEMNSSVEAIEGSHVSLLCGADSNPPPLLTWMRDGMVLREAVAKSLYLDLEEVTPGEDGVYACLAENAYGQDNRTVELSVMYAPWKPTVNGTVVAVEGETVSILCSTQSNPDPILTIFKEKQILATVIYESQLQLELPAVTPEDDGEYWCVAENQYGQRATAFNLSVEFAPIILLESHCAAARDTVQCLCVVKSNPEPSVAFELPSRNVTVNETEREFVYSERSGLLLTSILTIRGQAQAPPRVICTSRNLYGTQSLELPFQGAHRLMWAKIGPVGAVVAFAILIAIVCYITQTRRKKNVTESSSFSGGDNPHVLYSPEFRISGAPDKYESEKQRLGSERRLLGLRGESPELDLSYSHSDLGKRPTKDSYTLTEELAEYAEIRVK
Experimental: Preferably, the inhibition can be determined by a Hapten inhibition test. […] After overnight incubation at 4° C. the unbound complexes are removed by washing the cells and the bound radioactivity is determined. […] Then followed the addition of 10 μl of a suspension of target cells, preferably 0.25 to 0.5% of human erythrocytes and incubation overnight at 4° C. The unbound radioactivity is removed by washing the cells five times with 200 μl of washing buffer, preferably phosphate-buffered saline with 0.1% (W/V) bovine serum albumin, and the cell-bound activity is determined with a γ-counter. […] The inhibition is determined in that the value without inhibitor is set to 0% and that with the sialidase-treated cells is set equal to 100%.

Siglec-2 (murine CD22) = target: T2, Siglec-2 (murine CD22) (Mus musculus, UniProt P35329); test: Hapten inhibition assay, Siglec-2 (murine CD22); format: binding; settings: for Siglec-2 (murine CD22) rIP: quotient IC50 reference compound / IC50 compound
T2 sequence (P35329 22-148 limits assumed): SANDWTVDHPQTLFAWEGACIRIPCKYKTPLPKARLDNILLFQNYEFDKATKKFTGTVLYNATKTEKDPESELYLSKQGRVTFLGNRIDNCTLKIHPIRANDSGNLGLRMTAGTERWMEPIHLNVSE
Experimental: (§2) Preferably, the inhibition can be determined by a Hapten inhibition test. […] After overnight incubation at 4° C. the unbound complexes are removed by washing the cells and the bound radioactivity is determined. From the data obtained in this way, the concentrations are found which lead to 50% inhibition of the binding (IC50 values) (5, 6). Specially preferred during the Hapten inhibition test was 10 μl of the complex solution with an activity of 10^3 Bq ^125I mixed with the same volume of a solution of the substance to be investigated (concentrated three times) and incubated at 4° C. for one hour. Then followed the addition of 10 μl of a suspension of target cells, preferably 0.25 to 0.5% of human erythrocytes and incubation overnight at 4° C. The unbound radioactivity is removed by washing the cells five times with 200 μl of washing buffer, preferably phosphate-buffered saline with 0.1% (W/V) bovine serum albumin, and the cell-bound activity is determined with a γ-counter. […] The inhibition is determined in that the value without inhibitor is set to 0% and that with the sialidase-treated cells is set equal to 100%.
(§3) The IC50 value is the siglec inhibitor concentration which leads to 50% inhibition in the binding in the Hapten inhibition assay.

Siglec-1 (sialoadhesin) = Siglec-1 (sialoadhesin) (Mus musculus, UniProt Q62230); test: Hapten inhibition assay, Siglec-1 (sialoadhesin); format: binding; settings: for Siglec-1 (sialoadhesin) percentage in parentheses below the IC50 bound: at the concentration of the IC50 bound, meaning not defined in the patent; for Siglec-1 (sialoadhesin) rIP: quotient IC50 reference compound / IC50 compound
Siglec-1 (sialoadhesin), sequence (Q62230 20-136 limits assumed): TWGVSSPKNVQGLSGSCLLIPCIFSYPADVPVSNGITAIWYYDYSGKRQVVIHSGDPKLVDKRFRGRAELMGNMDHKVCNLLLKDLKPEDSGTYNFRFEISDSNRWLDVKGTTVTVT
Experimental: as §2, §3

Siglec-2 (human CD22) = target: T3, Siglec-2 (human CD22) (Homo sapiens, UniProt P20273); test: Hapten inhibition assay, Siglec-2 (human CD22); format: binding; settings: for Siglec-2 (human CD22) rIP: quotient IC50 reference compound / IC50 compound; for IC50: unit inferred
T3 sequence (P20273 20-138 limits assumed): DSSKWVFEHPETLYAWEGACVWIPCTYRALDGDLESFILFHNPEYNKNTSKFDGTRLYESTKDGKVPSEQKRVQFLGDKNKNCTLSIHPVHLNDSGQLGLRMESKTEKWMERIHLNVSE
Experimental: as §2, §3

Daudi cells = test: Ca2+ concentration in Daudi cells stimulated with anti-IgM; format: cell-based; settings: Daudi cells stimulated with anti-IgM in the presence of the compound
From the text: (§1) The compound BPC-Neu5Ac (shown below) was used according to known methods in test series for the investigation of the selectivity and the activity. […] This impairment with regard to the binding of ligands leads to an incomplete activation of the intracellular inhibitor domain of CD22.

[1] = test system: primary B-lymphocytes from human blood; test: Ca2+ concentration in primary B-lymphocytes stimulated with anti-IgM; format: cell-based
From the text: as §1

Row | SMILES | Siglec-4a (MAG) rIP (Siglec-4a (MAG)) | IC50 (Siglec-4a (MAG)) [µM] | Siglec-2 (murine CD22) rIP (Siglec-2 (murine CD22)) | IC50 (Siglec-2 (murine CD22); unit inferred) [mM] | Siglec-1 (sialoadhesin) percentage in parentheses below the IC50 bound (Siglec-1 (sialoadhesin)) | IC50 (Siglec-1 (sialoadhesin); bounds given in mM) [mM] | Siglec-1 (sialoadhesin) rIP (Siglec-1 (sialoadhesin)) | Siglec-2 (human CD22) rIP (Siglec-2 (human CD22)) | IC50 (Siglec-2 (human CD22)) [µM] | IC50 (Siglec-1 (sialoadhesin); unit inferred) [mM] | Ca2+ concentration (Daudi cells) | Ca2+ concentration [1] | selectivity of affinity for hCD22 (Siglec-2 (human CD22); in words) | binds stronger to siglec-2 than the reference compound (Siglec-2 (human CD22); relative to 2-alpha-methyl-5-N-acetyl-neuraminic acid) | binds stronger to siglec-4a than the reference compound (Siglec-4a (MAG)) | Siglec-2 (murine CD22) percentage in parentheses below the IC50 bound (Siglec-2 (murine CD22); at the concentration of the IC50 bound, meaning not defined in the patent) | IC50 (Siglec-2 (murine CD22); bounds given in mM) [mM]
1 | CO[C@]1(C(=O)O)C[C@H](O)[C@@H](NC(C)=O)[C@H]([C@H](O)[C@H](O)CNC(=O)C2CCCCC2)O1 [Methyl-α-9-N-cyclohexanoyl-amino-9-desoxy-Neu5Ac] | 50 | 110 | 6.9 | 0.76 | (93%) | > 1 | 0.2 | 4.1 | 383 |  |  |  |  |  |  |  | 
2 | CO[C@]1(C(=O)O)C[C@H](O)[C@@H](NC(C)=O)[C@H]([C@H](O)[C@H](O)CNC(=O)c2ccc(NC(C)=O)cc2)O1 [Methyl-α-9-N-(acetamidobenzoyl)-amino-9-desoxy-Neu5Ac] | 77 | 62 |  | 1.03 |  |  | 3.0 | 2.4 | 580 | 0.295 |  |  |  |  |  |  | 
3 | CO[C@]1(C(=O)O)C[C@H](O)[C@@H](NC(C)=O)[C@H]([C@H](O)[C@H](O)CNC(C)=O)O1 [Methyl-α-9-N-acetyl-amino-9-desoxy-Neu5Ac] | 3.7 | 2150 | 2.7 | 1.75 |  |  | 0.2 | 0.6 | 1800 | 3.82 |  |  |  |  |  |  | 
4 | COC1(C(=O)O)CC(O)C(NC(C)=O)C(C(O)C(O)CNC(=O)c2cccc3cc4ccccc4cc23)O1 (stereo not drawn) [Methyl-α-9-N-(anthracen-5-carbonyl)-amino-9-desoxy-Neu5Ac] | 28 | 162 | 7.4 | 0.647 |  |  | 0.5 | 4.9 | 338 | 0.75 |  |  |  |  |  |  | 
5 | CO[C@]1(C(=O)O)C[C@H](O)[C@@H](NC(C)=O)[C@H]([C@H](O)[C@H](O)CNC(=O)Cc2ccc3ccccc3c2)O1 [Methyl-α-9-N-(naphthyl-2-acetyl)-amino-9-desoxy-Neu5Ac] | 13 | 367 | 83 | 0.071 |  |  | 0.5 | 131 | 8 | 1.75 |  |  |  |  |  |  | 
6 | CO[C@]1(C(=O)O)CC(O)[C@@H](NC(C)=O)C([C@@H](O)[C@H](O)CNC(=O)c2ccc(-c3ccccc3)cc2)O1 (stereo partly drawn) [Methyl-α-9-N-(biphenyl-4-carbonyl)-amino-9-desoxy-Neu5Ac] | 218 | 22 | 5.0 | 1.22 |  |  | 13 | 150 | 4 | 0.052 | rise in the Ca^2+ concentration | clearly increased Ca^2+ concentration | very remarkable selective affinity for hCD22 | approximately 150 times |  |  | 
7 | CS[C@]1(C(=O)O)C[C@H](O)[C@@H](NC(C)=O)[C@H]([C@H](O)[C@H](O)CO)O1 [Methylthio-α-Neu5Ac] | 1.3 | 2780 | 1.1 | 4.25 |  |  | 0.8 | 1.6 | 1370 | 0.6 |  |  |  |  |  |  | 
8 | COC1(C(=O)O)CC(O)C(NC(C)=O)C(C(O)C(O)CNC(=O)c2ccc3ccccc3c2)O1 (stereo not drawn) [Methyl-α-9-N-(naphthyl-2-carbonyl)-amino-9-desoxy-Neu5Ac] | 236 | 20 | 18 | 0.27 |  |  | 12 | 167 | 6 | 0.078 |  |  |  |  | approx. 236 times |  | 
9 | CO[C@]1(C(=O)O)C[C@H](O)[C@@H](NC(C)=O)[C@H]([C@H](O)[C@H](O)CNC(=O)c2cccnc2)O1 [Methyl-α-9-N-(pyridine-3-carbonyl)-amino-9-desoxy-Neu5Ac] | 170 | 25 | 14 | 0.335 |  |  | 0.5 | 2.3 | 445 |  |  |  |  |  |  |  | 
10 | COC1(C(=O)O)CC(O)C(NC(C)=O)C(C(O)C(O)CNC(=O)c2ccc3ccccc3n2)O1 (stereo not drawn) [Methyl-α-9-N-(chinaldine-2-carbonyl)-amino-9-desoxy-Neu5Ac] | 54 | 87 |  |  | (100%) | > 2.5 | <<0.2 |  | 41 |  |  |  |  |  |  | (100%) | > 10
11 | CO[C@]1(C(=O)O)C[C@H](O)[C@@H](NC(C)=O)[C@H]([C@H](O)[C@H](O)CNC(=O)c2ccccc2)O1 [Methyl-α-9-N-benzoyl-amino-9-desoxy-Neu5Ac] | 704 | 7 | 3.7 | 1.09 |  |  | 1.8 | 5.7 | 290 | 0.539 |  |  |  |  | approximately 704 times |  | 
12 | COC1(C(=O)O)CC(O)C(NC(C)=O)C(C(O)C(O)CNC(=O)c2c(F)c(F)c(F)c(F)c2F)O1 (stereo not drawn) [Methyl-α-9-N-(pentafluorbenzoyl)-amino-9-desoxy-Neu5Ac] | 42 | 107 | 2.0 | 2.5 |  |  | 0.3 | 3.3 | 360 | 7 |  |  |  |  |  |  | 
